In the supplement of paper PMC10307832:

Tests used:
Assay in all cases: relative viability (nuclei count vs DMSO), 5 days (fraction); higher = more cells survive
[1] = compound: CC[C@@H](C)CNCC(=O)N1CCC2=C([C@@H]1COC3=CC=CC(=C3)C)C=CS2 [RU-SKI 43]
Procedure, shortened: (§1)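 Lung cancer cell lines in 1536-well plates were exposed by pinning to five library-drug doses (not always all listed) √10 apart, following an overnight hold at 37 °C. MetaXpress counted Hoechst-stained nuclei from 4× images taken after 5 days without medium change. Viability is the median ratio of treated-well to vehicle-well nuclei across plates. Plates required control CV below 25% and at least one doubling.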

[2] = compound: CCc1c2c(nc3ccc(OC(=O)N4CCC(N5CCCCC5)CC4)cc13)-c1cc3c(c(=O)n1C2)COC(=O)[C@]3(O)CC [Irinotecan]
Procedure, shortened: as §1

[3] = compound: Cn1cc(-c2cnc3ccc4ccc(CS(=O)(=O)NCc5ccccn5)cc4c(=O)c3c2)cn1 [MK-8033]
Procedure, shortened: as §1

Cell Line	relative viability ([1]; 0.1 µM)	relative viability ([1]; 0.3162 µM)	relative viability ([1]; 1 µM)	relative viability ([1]; 3.162 µM)	relative viability ([1]; 10 µM)	relative viability ([2]; 2 µM)	relative viability ([2]; 6.325 µM)	relative viability ([2]; 20 µM)	relative viability ([3]; 0.02 µM)	relative viability ([3]; 0.06325 µM)	relative viability ([3]; 0.2 µM)	relative viability ([3]; 0.6325 µM)	relative viability ([3]; 2 µM)	relative viability ([2]; 0.6325 µM)
201T	1.03	0.973	1.08	1.05	0.981	0.996	0.467	0.33	0.967	0.974	0.9	0.976	0.963	
A549	1	1.12	1.13	0.939	0.9	0.78	0.2	0.0915	0.996	0.932	0.93	0.913	0.943	0.943
A-427	1.09	1.02	1.12	0.94	1.03	0.844	0.299	0.21	1.05	0.963	0.877	1.06	0.96	
ABC-1	1.06	0.985	1.33	0.984	0.85	0.956	0.496	0.21	0.972	0.861	0.886	0.965	1.04	
BEN	1.05	0.987	1.25	0.991	1.05	0.73	0.345	0.338	1.04	0.913	0.963	0.934	0.939	0.735
CAL-12T	1.04	1.04	1.14	0.907	1	1.04	0.485	0.293	1.01	0.936	0.962	1.07	0.951	0.81
COR-L23	0.943	1.14	1.16	1.16	0.921	0.419	0.215	0.144	1.01	1.02	0.947	1.06	0.981	0.412
COR-L 105	1.01	0.853	0.963	1.07	0.899	0.903	0.603	0.339	1.04	0.809	0.854	0.94	0.826	0.803
Calu-6	0.948	1.21	1.07	1.08	0.966	0.59	0.247	0.133	1.02	0.906	0.923	1.06	1	0.724
ChaGo-K-1	1.02	1.02	1.1	0.988	0.946	0.7	0.295	0.261	1.03	0.907	0.941	1.01	0.873	0.759
EBC-1	0.863	1.13	1.1	0.989	0.635	0.44	0.345	0.179	0.973	0.943	0.965	0.928	0.386	0.618
EKVX	0.873	0.971	0.977	0.994	0.965	0.804	0.504	0.261	0.993	0.858	0.906	0.935	1.03	0.711
EMC-BAC-2	1.04	0.983	1.28	0.97	0.971	0.616	0.328	0.231	1.13	0.904	0.916	1.03	0.947	0.562
EPLC-272H	1	0.905	1.07	0.857	0.915	0.665	0.282	0.243	0.923	0.745	0.85	0.991	0.76	0.419
H3255	1.02	0.995	1.11	0.995	0.885	0.684	0.392	0.379	1.06	0.853	0.942	0.794	0.942	0.743
HARA	1.06	0.959	1.05	1.06	0.84	0.618	0.308	0.245	0.97	0.769	0.87	0.806	0.944	0.612
HCC-15	1.07	1.09	1.11	1.11	0.993	0.684	0.241	0.182	1.05	0.968	0.86	1.02	0.999	0.444
HCC-44	1.05	0.972	1.09	0.933	0.969	0.915	0.409	0.331	1.05	1.02	0.949	1.01	0.957	0.718
HCC-78	1.01	0.961	1.2	0.944	0.911	0.686	0.24	0.326	0.959	0.895	0.863	0.982	0.926	0.8
HCC-366	1.11	1.23	1.05	1.08	0.979	0.615	0.093	0.081	1.03	1.03	0.977	1.02	1.06	0.591
HCC-827	1.06	1.01	1.1	1.05	1.06	0.779	0.263	0.296	1.01		1.01	1.01	1.05	0.938
HOP-62	1.05	0.986	1.11	1.09	1.09	0.714	0.194	0.2	1	0.976	0.98	0.989	0.973	0.558
IA-LM	1.1	1.02	1.15	1.07	0.98	0.419	0.208	0.0921	0.886	0.933	0.933	0.93	0.952	0.616
LC-2-ad	0.967	1.02	1.16	0.963	0.932	0.492	0.299	0.191	0.953	0.938	0.936	1	0.927	0.47
LCLC-97TM1	1.13	0.972	1.05	0.973	0.838	0.454	0.173	0.167	1.05	0.927	0.795	0.999	0.975	0.39
